{"source": "ChEMBL document CHEMBL1201862", "about": "“PubChem BioAssay data set” (2004)", "key": {"Caspase-6": {"target": "T1, Caspase-6 (Homo sapiens, UniProt P55212)", "T1 sequence (P55212 whole entry)": "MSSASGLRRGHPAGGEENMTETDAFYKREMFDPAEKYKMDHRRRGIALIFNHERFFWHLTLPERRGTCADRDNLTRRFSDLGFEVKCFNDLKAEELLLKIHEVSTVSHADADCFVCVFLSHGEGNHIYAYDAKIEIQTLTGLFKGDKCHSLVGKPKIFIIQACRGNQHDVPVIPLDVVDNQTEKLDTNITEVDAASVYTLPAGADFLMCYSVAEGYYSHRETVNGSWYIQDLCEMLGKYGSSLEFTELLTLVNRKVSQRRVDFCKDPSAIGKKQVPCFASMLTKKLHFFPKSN", "assay": "inhibition of CASP6 peptide cleavage – biochemical, VEID-R110 fluorescence, cherry-pick, dose response (AID 720632)"}, "[1]": {"assay": "DRD fibroblast viability loss – cell-based, non-viral oncogenic, luminescence, dose response (AID 1934)", "format": "functional", "details": "Homo sapiens"}, "cells": {"assay": "cells", "format": "functional"}, "BJ": {"system": "BJ", "assay": "cells", "format": "functional, cell-based", "details": "Homo sapiens"}, "[2]": {"assay": "general cell-killing toxicity readout – plate reader, dry powder samples, cytotoxicity control for PAX8 inhibitor project, dose response (AID 743021)", "format": "functional, cell-based"}, "[3]": {"target": "T2, Short transient receptor potential channel 4 (Mus musculus, UniProt Q9QUQ5)", "T2 sequence (Q9QUQ5 whole entry)": "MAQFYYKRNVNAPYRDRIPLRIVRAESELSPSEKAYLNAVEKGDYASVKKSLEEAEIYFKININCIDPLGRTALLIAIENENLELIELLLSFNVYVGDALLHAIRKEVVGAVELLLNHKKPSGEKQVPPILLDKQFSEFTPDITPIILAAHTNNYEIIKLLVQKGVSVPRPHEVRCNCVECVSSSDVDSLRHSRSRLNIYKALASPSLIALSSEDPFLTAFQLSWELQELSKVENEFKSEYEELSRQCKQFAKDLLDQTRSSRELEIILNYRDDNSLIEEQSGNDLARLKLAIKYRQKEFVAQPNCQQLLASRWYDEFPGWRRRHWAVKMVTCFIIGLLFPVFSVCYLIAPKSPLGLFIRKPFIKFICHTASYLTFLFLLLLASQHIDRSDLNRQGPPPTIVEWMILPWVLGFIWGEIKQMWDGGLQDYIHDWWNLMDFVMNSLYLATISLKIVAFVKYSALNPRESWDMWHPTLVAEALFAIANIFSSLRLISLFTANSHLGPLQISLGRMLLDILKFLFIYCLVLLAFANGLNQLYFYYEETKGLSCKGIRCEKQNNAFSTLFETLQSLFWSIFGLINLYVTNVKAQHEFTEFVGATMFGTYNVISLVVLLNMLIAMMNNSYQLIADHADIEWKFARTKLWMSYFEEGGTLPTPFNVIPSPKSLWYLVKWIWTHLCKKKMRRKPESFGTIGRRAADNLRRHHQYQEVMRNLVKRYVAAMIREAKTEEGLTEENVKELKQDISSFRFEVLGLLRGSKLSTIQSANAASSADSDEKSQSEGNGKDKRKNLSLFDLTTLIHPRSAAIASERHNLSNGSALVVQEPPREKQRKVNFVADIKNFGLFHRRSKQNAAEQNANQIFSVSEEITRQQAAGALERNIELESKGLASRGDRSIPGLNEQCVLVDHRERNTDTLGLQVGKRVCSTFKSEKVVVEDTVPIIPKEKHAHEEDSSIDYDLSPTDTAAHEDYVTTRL", "assay": "calcium entry via TRPC4 opening agents – cell-based, HEK293 TRPC4/mu-opioid, Fluo-4 calcium, dose response (AID 434937)", "format": "functional"}, "[4]": {"assay": "non-specific 3'UTR reporter inhibition in Clone20-Shn3RL – cell-based, Renilla luciferase, cherry-picked, counter-screen for Shn3 inhibitor project, dose response (AID 624133)", "format": "functional"}, "[5]": {"target": "Ribosomal protein S6 kinase alpha-3 (Homo sapiens, UniProt P51812)", "format": "functional"}, "[6]": {"target": "Tyrosine-protein kinase JAK2 (Homo sapiens, UniProt O60674)", "format": "functional"}, "[7]": {"target": "Cyclin-dependent kinase 5 (Homo sapiens, UniProt Q00535)", "format": "functional"}, "[8]": {"target": "Insulin-like growth factor 1 receptor (Homo sapiens, UniProt P08069)", "assay": "Navigating the Kinome. Panel member name: IGF1R", "format": "functional"}, "[9]": {"target": "RAC-alpha serine/threonine-protein kinase (Homo sapiens, UniProt P31749)", "format": "functional"}, "[10]": {"target": "Serine/threonine-protein kinase TAO1 (Homo sapiens, UniProt Q7L7X3)", "format": "functional"}, "[11]": {"target": "Non-receptor tyrosine-protein kinase TYK2 (Homo sapiens, UniProt P29597)", "format": "functional"}, "[12]": {"target": "MAP kinase-activated protein kinase 5 (Homo sapiens, UniProt Q8IW41)", "format": "functional"}, "[13]": {"target": "cGMP-dependent protein kinase 1 (Homo sapiens, UniProt Q13976)", "format": "functional"}, "[14]": {"target": "High affinity nerve growth factor receptor (Homo sapiens, UniProt P04629)", "sequence (P04629 whole entry)": "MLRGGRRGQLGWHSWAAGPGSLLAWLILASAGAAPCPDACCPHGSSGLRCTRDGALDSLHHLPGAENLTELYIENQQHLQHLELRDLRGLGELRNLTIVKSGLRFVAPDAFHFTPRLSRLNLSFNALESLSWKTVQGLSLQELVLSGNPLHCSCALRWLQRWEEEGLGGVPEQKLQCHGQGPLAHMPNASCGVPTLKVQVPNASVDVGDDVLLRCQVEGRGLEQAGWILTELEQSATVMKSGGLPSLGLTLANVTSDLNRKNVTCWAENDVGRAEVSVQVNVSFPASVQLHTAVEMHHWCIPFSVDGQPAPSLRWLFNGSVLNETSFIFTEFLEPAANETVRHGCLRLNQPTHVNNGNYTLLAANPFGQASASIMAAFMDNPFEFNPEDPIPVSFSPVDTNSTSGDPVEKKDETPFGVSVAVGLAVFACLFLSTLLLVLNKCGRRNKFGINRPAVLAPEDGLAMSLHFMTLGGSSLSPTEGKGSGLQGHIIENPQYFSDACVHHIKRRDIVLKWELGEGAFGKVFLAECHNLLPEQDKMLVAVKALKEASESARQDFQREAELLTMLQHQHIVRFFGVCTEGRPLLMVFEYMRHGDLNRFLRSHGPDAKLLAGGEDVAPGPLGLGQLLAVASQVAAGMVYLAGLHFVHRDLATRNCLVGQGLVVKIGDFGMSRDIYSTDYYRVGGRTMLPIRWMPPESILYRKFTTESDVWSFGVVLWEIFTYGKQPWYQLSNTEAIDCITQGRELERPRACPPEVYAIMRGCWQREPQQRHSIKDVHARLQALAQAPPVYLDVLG", "format": "functional"}, "[15]": {"target": "Mitogen-activated protein kinase kinase kinase kinase 4 (Homo sapiens, UniProt O95819)", "format": "functional"}, "[16]": {"target": "MAP kinase-activated protein kinase 2 (Homo sapiens, UniProt P49137)", "format": "functional"}, "[17]": {"target": "Tyrosine-protein kinase Fyn (Homo sapiens, UniProt P06241)", "format": "functional"}, "[18]": {"target": "Inhibitor of nuclear factor kappa-B kinase subunit alpha (Homo sapiens, UniProt O15111)", "format": "functional"}, "[19]": {"target": "Dual specificity protein kinase CLK4 (Homo sapiens, UniProt Q9HAZ1)", "format": "functional"}, "[20]": {"target": "Mitogen-activated protein kinase kinase kinase kinase 2 (Homo sapiens, UniProt Q12851)", "format": "functional"}, "[21]": {"target": "Serine/threonine-protein kinase BRSK1 (Homo sapiens, UniProt Q8TDC3)", "sequence (Q8TDC3 whole entry)": "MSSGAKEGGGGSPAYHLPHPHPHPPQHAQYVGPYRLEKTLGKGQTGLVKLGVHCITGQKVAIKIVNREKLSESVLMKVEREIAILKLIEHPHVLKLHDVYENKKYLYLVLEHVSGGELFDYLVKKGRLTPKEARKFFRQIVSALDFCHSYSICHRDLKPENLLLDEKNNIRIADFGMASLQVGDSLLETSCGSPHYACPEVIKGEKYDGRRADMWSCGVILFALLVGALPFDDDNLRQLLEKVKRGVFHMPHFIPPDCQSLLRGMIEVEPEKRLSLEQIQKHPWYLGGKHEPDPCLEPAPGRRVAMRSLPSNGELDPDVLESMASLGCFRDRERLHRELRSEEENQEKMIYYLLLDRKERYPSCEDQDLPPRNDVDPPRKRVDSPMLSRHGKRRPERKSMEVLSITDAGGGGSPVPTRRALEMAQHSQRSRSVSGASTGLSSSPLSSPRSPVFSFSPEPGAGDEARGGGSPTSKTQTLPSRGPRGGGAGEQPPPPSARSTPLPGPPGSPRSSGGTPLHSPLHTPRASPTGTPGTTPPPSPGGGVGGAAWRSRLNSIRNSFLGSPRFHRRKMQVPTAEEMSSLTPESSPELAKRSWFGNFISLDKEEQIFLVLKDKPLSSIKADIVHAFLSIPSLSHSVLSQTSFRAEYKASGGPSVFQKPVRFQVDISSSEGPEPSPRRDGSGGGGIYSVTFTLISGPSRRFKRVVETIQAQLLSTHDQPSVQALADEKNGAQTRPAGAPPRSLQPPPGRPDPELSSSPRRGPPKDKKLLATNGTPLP", "format": "functional"}, "[22]": {"target": "RAC-gamma serine/threonine-protein kinase (Homo sapiens, UniProt Q9Y243)", "format": "functional"}, "[23]": {"target": "Mitogen-activated protein kinase 9 (Homo sapiens, UniProt P45984)", "format": "functional"}, "[24]": {"target": "Serine/threonine-protein kinase MRCK alpha (Homo sapiens, UniProt Q5VT25)", "sequence (Q5VT25 whole entry)": "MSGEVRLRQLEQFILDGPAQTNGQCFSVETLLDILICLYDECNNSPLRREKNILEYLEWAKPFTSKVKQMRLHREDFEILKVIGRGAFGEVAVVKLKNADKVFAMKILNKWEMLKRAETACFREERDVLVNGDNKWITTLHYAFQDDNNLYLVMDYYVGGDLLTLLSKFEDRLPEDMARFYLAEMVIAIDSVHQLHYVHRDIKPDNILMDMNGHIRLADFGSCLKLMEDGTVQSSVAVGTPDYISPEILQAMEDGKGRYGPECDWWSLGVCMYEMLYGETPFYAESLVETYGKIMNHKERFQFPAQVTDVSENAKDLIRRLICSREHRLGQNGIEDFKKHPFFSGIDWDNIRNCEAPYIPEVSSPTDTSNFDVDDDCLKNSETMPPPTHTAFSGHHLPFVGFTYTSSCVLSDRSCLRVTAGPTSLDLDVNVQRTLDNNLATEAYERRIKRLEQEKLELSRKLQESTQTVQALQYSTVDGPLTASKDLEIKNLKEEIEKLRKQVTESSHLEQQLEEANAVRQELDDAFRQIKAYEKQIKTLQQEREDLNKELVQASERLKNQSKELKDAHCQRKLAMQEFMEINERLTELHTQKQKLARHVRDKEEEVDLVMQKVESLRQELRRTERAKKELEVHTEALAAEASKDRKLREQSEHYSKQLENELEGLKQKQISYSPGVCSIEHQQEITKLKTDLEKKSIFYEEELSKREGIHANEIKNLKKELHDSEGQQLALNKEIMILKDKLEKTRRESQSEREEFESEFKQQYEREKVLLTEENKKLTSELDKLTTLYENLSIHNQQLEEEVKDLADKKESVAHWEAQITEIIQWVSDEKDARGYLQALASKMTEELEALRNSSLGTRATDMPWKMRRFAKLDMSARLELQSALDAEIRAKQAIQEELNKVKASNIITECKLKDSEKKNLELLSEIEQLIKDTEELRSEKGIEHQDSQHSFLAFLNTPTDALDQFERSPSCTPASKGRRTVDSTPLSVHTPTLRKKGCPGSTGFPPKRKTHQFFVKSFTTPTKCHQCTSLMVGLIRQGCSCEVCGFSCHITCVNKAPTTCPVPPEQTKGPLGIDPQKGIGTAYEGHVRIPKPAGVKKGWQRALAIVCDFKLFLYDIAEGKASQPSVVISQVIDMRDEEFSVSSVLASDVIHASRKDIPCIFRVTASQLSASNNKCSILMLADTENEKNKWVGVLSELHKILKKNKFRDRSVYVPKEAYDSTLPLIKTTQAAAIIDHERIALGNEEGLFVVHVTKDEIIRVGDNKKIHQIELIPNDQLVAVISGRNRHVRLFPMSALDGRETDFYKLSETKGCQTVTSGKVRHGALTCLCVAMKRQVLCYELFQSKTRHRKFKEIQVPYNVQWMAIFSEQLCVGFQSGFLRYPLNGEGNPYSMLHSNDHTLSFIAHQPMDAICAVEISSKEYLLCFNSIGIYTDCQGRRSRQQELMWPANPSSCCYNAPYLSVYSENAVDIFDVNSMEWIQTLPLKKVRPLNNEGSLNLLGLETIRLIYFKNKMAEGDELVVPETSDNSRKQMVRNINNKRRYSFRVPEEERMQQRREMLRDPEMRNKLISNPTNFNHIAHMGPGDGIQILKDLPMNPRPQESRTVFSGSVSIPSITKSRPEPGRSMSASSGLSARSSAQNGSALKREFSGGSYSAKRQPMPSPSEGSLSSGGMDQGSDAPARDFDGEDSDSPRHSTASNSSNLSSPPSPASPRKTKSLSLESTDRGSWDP", "format": "functional"}, "[25]": {"target": "Cyclin-dependent kinase 2 (Homo sapiens, UniProt P24941)", "format": "functional"}, "[26]": {"target": "Protein kinase C zeta type (Homo sapiens, UniProt Q05513)", "sequence (Q05513 whole entry)": "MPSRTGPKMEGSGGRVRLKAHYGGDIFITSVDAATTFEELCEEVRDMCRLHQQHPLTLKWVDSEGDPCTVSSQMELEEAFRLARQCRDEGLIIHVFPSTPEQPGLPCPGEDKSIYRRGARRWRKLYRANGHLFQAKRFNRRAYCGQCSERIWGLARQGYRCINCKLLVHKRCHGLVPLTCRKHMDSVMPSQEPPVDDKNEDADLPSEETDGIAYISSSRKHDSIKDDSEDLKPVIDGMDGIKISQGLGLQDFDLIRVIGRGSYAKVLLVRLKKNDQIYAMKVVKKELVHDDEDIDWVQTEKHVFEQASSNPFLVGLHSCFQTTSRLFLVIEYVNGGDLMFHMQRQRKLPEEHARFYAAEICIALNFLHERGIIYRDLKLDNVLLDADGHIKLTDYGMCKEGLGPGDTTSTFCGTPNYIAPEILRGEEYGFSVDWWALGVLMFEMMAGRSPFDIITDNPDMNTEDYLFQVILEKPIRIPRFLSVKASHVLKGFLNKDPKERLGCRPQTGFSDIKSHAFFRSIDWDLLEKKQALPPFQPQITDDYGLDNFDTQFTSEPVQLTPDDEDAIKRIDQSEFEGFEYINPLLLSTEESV", "format": "functional"}, "Focal adhesion kinase 1": {"target": "Focal adhesion kinase 1 (Homo sapiens, UniProt Q05397)", "sequence (Q05397 whole entry)": "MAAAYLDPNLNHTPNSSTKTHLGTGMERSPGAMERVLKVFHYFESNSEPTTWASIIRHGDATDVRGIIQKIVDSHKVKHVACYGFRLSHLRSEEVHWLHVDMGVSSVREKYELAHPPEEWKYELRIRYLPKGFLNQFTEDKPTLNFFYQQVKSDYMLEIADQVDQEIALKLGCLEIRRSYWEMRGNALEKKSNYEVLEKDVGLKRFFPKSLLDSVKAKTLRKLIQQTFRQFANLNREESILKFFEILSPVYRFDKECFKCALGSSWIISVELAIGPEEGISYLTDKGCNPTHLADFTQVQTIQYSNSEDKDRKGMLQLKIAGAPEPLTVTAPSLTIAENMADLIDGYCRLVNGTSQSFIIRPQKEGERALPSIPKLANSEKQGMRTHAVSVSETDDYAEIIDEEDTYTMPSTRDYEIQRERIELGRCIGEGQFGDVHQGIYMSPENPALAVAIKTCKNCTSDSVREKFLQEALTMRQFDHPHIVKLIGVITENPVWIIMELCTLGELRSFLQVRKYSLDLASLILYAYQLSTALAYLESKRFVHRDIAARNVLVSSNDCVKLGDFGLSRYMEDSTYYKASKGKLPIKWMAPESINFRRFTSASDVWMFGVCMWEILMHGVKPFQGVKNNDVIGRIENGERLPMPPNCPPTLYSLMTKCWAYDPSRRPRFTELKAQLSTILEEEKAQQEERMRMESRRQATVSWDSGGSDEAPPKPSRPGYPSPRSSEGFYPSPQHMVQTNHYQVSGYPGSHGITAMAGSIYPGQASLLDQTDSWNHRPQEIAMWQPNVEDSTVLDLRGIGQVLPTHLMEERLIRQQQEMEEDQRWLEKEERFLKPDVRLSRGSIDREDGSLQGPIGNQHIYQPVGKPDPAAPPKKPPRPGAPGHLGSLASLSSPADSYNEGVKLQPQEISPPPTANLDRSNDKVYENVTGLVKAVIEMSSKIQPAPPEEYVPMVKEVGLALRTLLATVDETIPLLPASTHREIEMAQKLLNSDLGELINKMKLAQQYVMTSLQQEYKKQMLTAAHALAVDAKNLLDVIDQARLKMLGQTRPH", "format": "functional"}}, "note": "Calls of active or inactive are those of the source.", "data": [{"smiles": "O=[N+]([O-])c1c(Nc2ccccn2)cc(Cl)c2nonc12", "values": [{"measurement": "AC50", "setting": "Caspase-6", "result": "1.06 µM (active)"}, {"measurement": "EC50", "setting": "[1]", "result": "5.44 µM (inconclusive)"}, {"measurement": "IC50", "setting": "cells", "result": "0.32 µM (active)"}, {"measurement": "EC50", "setting": "BJ", "result": "5.38 µM (active)"}]}, {"smiles": "CC[C@@H](C)[C@H](CNC)NC[C@@H](Cc1cccc2ccccc12)NCCc1cccc(C(F)(F)F)c1", "values": [{"measurement": "AC50", "setting": "[2]", "result": "27.5 µM (active)"}, {"measurement": "EC50", "setting": "[3]", "result": "9.44 µM (active)"}, {"measurement": "AC50", "setting": "[4]", "result": "3.28 µM (active)"}]}, {"smiles": "CC(C)(CO)CNc1nccc(-c2c(-c3ccc(F)cc3)nc3c(CC4CC4)nccn23)n1", "values": [{"measurement": "Ki", "setting": "[5]", "result": "> 7.94 µM (inactive)"}, {"measurement": "Ki", "setting": "[6]", "result": "> 1.58 µM (inactive)"}, {"measurement": "Ki", "setting": "[7]", "result": "> 10 µM (inactive)"}, {"measurement": "Ki", "setting": "[8]", "result": "> 2 µM (inactive)"}, {"measurement": "Ki", "setting": "[9]", "result": "> 7.94 µM (inactive)"}, {"measurement": "Ki", "setting": "[10]", "result": "7.94 µM (active)"}, {"measurement": "Ki", "setting": "[11]", "result": "> 2 µM (inactive)"}, {"measurement": "Ki", "setting": "[12]", "result": "> 1.58 µM (inactive)"}, {"measurement": "Ki", "setting": "[13]", "result": "> 2 µM (inactive)"}, {"measurement": "Ki", "setting": "[14]", "result": "> 2.51 µM (inactive)"}, {"measurement": "Ki", "setting": "[15]", "result": "3.98 µM (active)"}, {"measurement": "Ki", "setting": "[16]", "result": "> 7.94 µM (inactive)"}, {"measurement": "Ki", "setting": "[17]", "result": "> 0.794 µM (inactive)"}, {"measurement": "Ki", "setting": "[18]", "result": "> 3.98 µM (inactive)"}, {"measurement": "Ki", "setting": "[19]", "result": "3.98 µM (active)"}, {"measurement": "Ki", "setting": "[20]", "result": "> 6.31 µM (inactive)"}, {"measurement": "Ki", "setting": "[21]", "result": "> 10 µM (inactive)"}, {"measurement": "Ki", "setting": "[22]", "result": "> 10 µM (inactive)"}, {"measurement": "Ki", "setting": "[23]", "result": "0.0316 µM (active)"}, {"measurement": "Ki", "setting": "[24]", "result": "> 10 µM (inactive)"}, {"measurement": "Ki", "setting": "[25]", "result": "> 7.94 µM (inactive)"}, {"measurement": "Ki", "setting": "[26]", "result": "> 7.94 µM (inactive)"}, {"measurement": "Ki", "setting": "Focal adhesion kinase 1", "result": "> 1.58 µM (inactive)"}]}]}
